Assay results: ChEMBL document CHEMBL1201862, “PubChem BioAssay data set” (2004)
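Interpolation was linear, between the two tested concentrations surrounding the appropriate level; five concentrations were tested over 48 hours in 96-well plates. GI50 marks 50% less growth.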 Activity calls are given as the source filed them. No stated cut-off is given here; in the data, active = GI50 up to about 1.1 µM and inactive = higher.

Columns and labels:
Experiment in all cases: NCI anticancer screen, dose series, 48 h
[1] = test system: NCI-H460
[2] = test system: HOP-92
[3] = test system: A498
[4] = test system: K562
[5] = test system: HCC 2998
[6] = test system: HCT-15
[7] = test system: CAKI-1
[8] = test system: Malme-3M
[9] = test system: OVCAR-5
[10] = test system: 786-0
[11] = test system: NCI-H23
[12] = test system: HT-29
[13] = test system: MDA-MB-435
[14] = test system: A549
[15] = test system: OVCAR-8
[16] = test system: HOP-62
[17] = test system: NCI-H226
[18] = test system: SF-295
[19] = test system: ACHN
[20] = test system: M14
[21] = test system: RPMI-8226
[22] = test system: HL-60
[23] = test system: MOLT-4
[24] = test system: DU-145
[25] = test system: NCI-H522
[26] = test system: OVCAR-3
[27] = test system: MDA-MB-231
[28] = test system: SNB-75
[29] = test system: U-251
[30] = test system: TK-10
[31] = test system: COLO 205
[32] = test system: OVCAR-4
[33] = test system: SR
[34] = test system: SK-MEL-2
[35] = test system: RXF 393
[36] = test system: UACC-257
[37] = test system: IGROV-1
[38] = test system: Hs-578T
[39] = test system: UO-31
[40] = test system: SK-OV-3
[41] = test system: HCT-116
[42] = test system: BT-549
[43] = test system: SW-620
[44] = test system: SK-MEL-5
[45] = test system: PC-3
[46] = test system: KM12
[47] = test system: UACC-62
[48] = test system: NCI/ADR-RES
[49] = test system: LOX IMVI
[50] = test system: SNB-19
[51] = test system: EKVX
[52] = test system: CCRF-CEM
[53] = test system: T47D
[54] = test system: SK-MEL-28
[55] = test system: SF-268
[56] = test system: SF-539
[57] = test system: SN12C
[58] = test system: MCF7

Structure (SMILES): C#CCNC(CS)C(=O)O (configuration not stated)
- GI50 [1]: > 100 µM (inactive)
- GI50 [2]: > 100 µM (inactive)
- GI50 [3]: > 100 µM (inactive)
- GI50 [4]: > 100 µM (inactive)
- GI50 [5]: > 100 µM (inactive)
- GI50 [6]: > 100 µM
- GI50 [7]: > 100 µM (inactive)
- GI50 [8]: > 100 µM (inactive)
- GI50 [9]: > 100 µM (inactive)
- GI50 [10]: > 100 µM (inactive)
- GI50 [11]: > 100 µM (inactive)
- GI50 [12]: > 100 µM (inactive)
- GI50 [13]: > 100 µM (inactive)
- GI50 [14]: > 100 µM (inactive)
- GI50 [15]: > 100 µM (inactive)
- GI50 [16]: > 100 µM (inactive)
- GI50 [17]: > 100 µM (inactive)
- GI50 [18]: > 100 µM (inactive)
- GI50 [19]: > 100 µM (inactive)
- GI50 [20]: > 100 µM (inactive)
- GI50 [21]: > 100 µM (inactive)
- GI50 [22]: > 100 µM (inactive)
- GI50 [23]: > 100 µM (inactive)
- GI50 [24]: > 100 µM (inactive)
- GI50 [25]: > 100 µM (inactive)
- GI50 [26]: > 100 µM (inactive)
- GI50 [27]: > 100 µM (inactive)
- GI50 [28]: > 100 µM (inactive)
- GI50 [29]: > 100 µM (inactive)
- GI50 [30]: > 100 µM (inactive)
- GI50 [31]: > 100 µM (inactive)
- GI50 [32]: > 100 µM (inactive)
- GI50 [33]: > 100 µM (inactive)
- GI50 [34]: > 100 µM (inactive)
- GI50 [35]: > 100 µM (inactive)
- GI50 [36]: > 100 µM (inactive)
- GI50 [37]: > 100 µM (inactive)
- GI50 [38]: > 100 µM (inactive)
- GI50 [39]: > 100 µM (inactive)
- GI50 [40]: > 100 µM (inactive)
- GI50 [41]: > 100 µM (inactive)
- GI50 [42]: > 100 µM (inactive)
- GI50 [43]: > 100 µM (inactive)
- GI50 [44]: > 100 µM (inactive)
- GI50 [45]: > 100 µM (inactive)
- GI50 [46]: > 100 µM (inactive)
- GI50 [47]: > 100 µM (inactive)
- GI50 [48]: > 100 µM (inactive)
- GI50 [49]: > 100 µM (inactive)
- GI50 [50]: > 100 µM (inactive)
- GI50 [51]: > 100 µM (inactive)
- GI50 [52]: > 100 µM (inactive)
- GI50 [53]: > 100 µM (inactive)
- GI50 [54]: > 100 µM (inactive)
- GI50 [55]: > 100 µM (inactive)

Structure (SMILES): Cn1c2ccccc2n2c(=O)c(-c3ccc(O)cc3)nnc12
- GI50 [56]: 35 µM (inactive)
- GI50 [1]: 87.3 µM (inactive)
- GI50 [2]: > 100 µM (inactive)
- GI50 [57]: > 100 µM (inactive)
- GI50 [3]: > 100 µM (inactive)
- GI50 [5]: > 100 µM (inactive)
- GI50 [6]: > 100 µM
- GI50 [7]: 27.7 µM (inactive)
- GI50 [8]: > 100 µM (inactive)
- GI50 [9]: > 100 µM (inactive)
- GI50 [58]: > 100 µM (inactive)
- GI50 [10]: 40.2 µM (inactive)
- GI50 [11]: > 100 µM (inactive)
- GI50 [12]: > 100 µM (inactive)
- GI50 [13]: > 100 µM (inactive)
- GI50 [14]: > 100 µM (inactive)
- GI50 [15]: > 100 µM (inactive)
- GI50 [16]: 42.4 µM (inactive)
- GI50 [17]: 46.6 µM (inactive)
- GI50 [18]: 18.3 µM (inactive)
- GI50 [19]: 70 µM (inactive)
- GI50 [20]: > 100 µM (inactive)
- GI50 [22]: > 100 µM (inactive)
- GI50 [23]: > 100 µM (inactive)
- GI50 [24]: > 100 µM (inactive)
- GI50 [25]: 96.8 µM (inactive)
- GI50 [27]: 31.2 µM (inactive)
- GI50 [28]: 25.8 µM (inactive)
- GI50 [29]: 28.2 µM (inactive)
- GI50 [30]: > 100 µM (inactive)
- GI50 [31]: > 100 µM (inactive)
- GI50 [32]: > 100 µM (inactive)
- GI50 [33]: > 100 µM (inactive)
- GI50 [34]: > 100 µM (inactive)
- GI50 [36]: > 100 µM (inactive)
- GI50 [37]: > 100 µM (inactive)
- GI50 [38]: 34.8 µM (inactive)
- GI50 [39]: > 100 µM (inactive)
- GI50 [41]: > 100 µM (inactive)
- GI50 [42]: 56 µM (inactive)
- GI50 [43]: > 100 µM (inactive)
- GI50 [44]: > 100 µM (inactive)
- GI50 [45]: > 100 µM (inactive)
- GI50 [46]: > 100 µM (inactive)
- GI50 [48]: > 100 µM (inactive)
- GI50 [49]: 69.8 µM (inactive)
- GI50 [50]: 80.4 µM (inactive)
- GI50 [51]: 21.2 µM (inactive)
- GI50 [52]: > 100 µM (inactive)
- GI50 [53]: > 100 µM (inactive)
- GI50 [54]: > 100 µM (inactive)
- GI50 [55]: 64.7 µM (inactive)
